Values quoted from earlier work, collected in US20130172299A1, “Combination Therapy for Treatment of Bone and Mineral Disorders for Patients with Impaired Renal Function” (priority 2008, published 2013).

Legend:
[1] = hemodialysis patients

Row | Structure (SMILES) | inflammation in ESRD (300 mg po qd for 14 days) | serious adverse events (300 mg po qd, 15 patients treated for 14 days) | LDL cholesterol [1] | serum HDL cholesterol [1] | serum calcium levels [1] | serum phosphorous levels [1]
1 | Cc1c(O)cc2c(c1C)O[C@](C)(CCC[C@H](C)CCC[C@H](C)CCCC(C)C)CC2 [Gamma tocopherol] | efficacy in reducing inflammation | no serious adverse events were reported |  |  |  | 
2 | NC(=O)c1cccnc1 [nicotinamide] |  |  | decreased | increased | did not change | significantly reduced
